# Measured values from US20220079931A1, “ESTROGEN RECEPTOR PROTEIN DEGRADERS” (THE REGENTS OF THE UNIVERSITY OF MICHIGAN, priority 2019, published 2022).
# Legend:
# [1] = tested on: primary human mammary epithelial cells; assay: Cell proliferation in primary human mammary epithelial cells; assay type: cell-based
# Procedure: (§1) Cell Growth Assay. Cells were seeded at 1500/well in 96 well plates overnight. One day after seeding, they were treated with indicated doses of compounds. The growth of the cells was evaluated by colorimetric WST-8 assay 4 days after the compound treatment following the instructions of the manufacturer, Cayman Chemical, Ann Arbor, Mich.
# (§2) Fulvestrant achieves an Imax value of 43.8%. […] RAD1901, a previously reported SERD molecule^18, achieves an Imax value of 25.7%.
# [2] = tested on: mRNA levels of pGR and GREB1; assay: qRT-PCR of ER-regulated genes in MCF-7 cells
# ERα = molecular target: T1, ERα (Homo sapiens, UniProt P03372); assay: ER degradation by Western blotting in T47D cells; assay type: cell-based; design: Dmax: dose or concentration left out as unconfirmed
# T1 sequence (P03372 1-595): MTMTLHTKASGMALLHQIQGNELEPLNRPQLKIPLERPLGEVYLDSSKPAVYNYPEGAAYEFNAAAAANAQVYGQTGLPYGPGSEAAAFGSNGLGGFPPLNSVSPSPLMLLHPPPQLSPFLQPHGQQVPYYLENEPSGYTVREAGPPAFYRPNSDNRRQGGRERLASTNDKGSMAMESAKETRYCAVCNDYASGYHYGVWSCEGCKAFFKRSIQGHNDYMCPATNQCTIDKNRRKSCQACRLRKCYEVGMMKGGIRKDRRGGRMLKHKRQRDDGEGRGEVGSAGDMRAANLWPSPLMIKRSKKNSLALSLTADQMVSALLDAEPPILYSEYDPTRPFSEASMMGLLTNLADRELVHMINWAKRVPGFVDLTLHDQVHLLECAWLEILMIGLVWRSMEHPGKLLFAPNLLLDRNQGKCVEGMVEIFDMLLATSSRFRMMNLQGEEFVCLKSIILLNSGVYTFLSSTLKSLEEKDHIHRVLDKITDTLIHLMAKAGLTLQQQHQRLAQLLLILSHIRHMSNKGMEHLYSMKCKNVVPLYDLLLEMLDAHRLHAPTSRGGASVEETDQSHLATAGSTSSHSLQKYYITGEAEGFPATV
# Procedure: FIG. 8 is an image showing the ERα degradation dose-response Western blotting for compound 32 at 4 h in T47D cells. […] Cell Culture. Human breast cancer cell lines MCF-7 (ATCC® HTB-22TM) and T47D (ATCC® HTB-133TM) were purchased from the American Type Culture Collection (ATCC), Manassas, Va., and maintained and cultured in Dulbecco's Modified Eagle's medium (DMEM) containing 10% fetal bovine serum, 1 unit/ml of penicillin and 1 μg/ml of streptomycin. Cells with 3-8 passages after purchase were used in experiments as indicated. Western Blot Analysis. Western blot analysis was performed essentially as described previously (Hu et al, 2015, PMID: 26358219). Cells treated with indicated compounds were lysed in Radioimmunoprecipitation Assay Protein Lysis and Extraction Buffer (25 mmol/L Tris.HCl, pH 7.6, 150 mmol/L NaCl, 1% Nonidet P-40, 1% sodium deoxycholate, and 0.1% sodium dodecyl sulfate) containing proteinase inhibitor cocktail (Roche Diagnostics, Mannheim, Germany). After determination of protein concentration by BCA assay (Fisher Scientific, Pittsburgh, Pa.), equal amounts of total protein were electrophoresed through 10% SDS-polyacrylamide gels. The separated protein bands were transferred onto PVDF membranes (GE Healthcare Life Sciences, Marlborough, Mass.) and blotted against different antibodies, as indicated. The human estrogen receptor a antibodies (AB16460) were purchased from Abeam, Inc., Cambridge, Mass. The membranes were reblotted with horseradish peroxidase-conjugated anti-glyceraldehyde-3-phosphate dehydrogenase antibody ([…]) from Sigma-Aldrich Corporation, St. Louis, Mo. The blots were scanned and the band intensities were quantified using GelQuant.NET software as described in biochemlabsolutions.com. The relative mean intensity of target proteins was expressed after normalization to the intensity of glyceraldehyde-3-phosphate dehydrogenase bands from individual repeats.
# MCF-7 cells [3] = assay: WST-8 cell proliferation assay in MCF-7 cells; assay type: cell-based, human
# Procedure: Cell Culture. Human breast cancer cell lines MCF-7 (ATCC® HTB-22™) and T47D (ATCC® HTB-133™) were purchased from the American Type Culture Collection (ATCC), Manassas, Va., and maintained and cultured in Dulbecco's Modified Eagle's medium (DMEM) containing 10% fetal bovine serum, 1 unit/ml of penicillin and 1 μg/ml of streptomycin. Cells with 3-8 passages after purchase were used in experiments as indicated.
# as §1, §2
# MCF-7 cells [4] = assay: Crystal violet staining experiment in MCF-7 cells; conditions: 10 nM, 100 nM and 300 nM, versus raloxifene and fulvestrant
structure (smiles),measurement,setting,value
"CCN(CCCCCOCC(=O)N[C@H](C(=O)N1C[C@H](O)C[C@H]1C(=O)N[C@@H](C)c1ccc(-c2scnc2C)cc1)C(C)(C)C)CCOc1ccc(C(=O)c2c(-c3ccc(O)cc3)sc3cc(O)ccc23)cc1 [compound 32, (2S,4R)-1-((S)-2-(2-((5-(Ethyl(2-(4-(6-hydroxy-2-(4-hydroxyphenyl)benzo[b]thiophene-3-carbonyl)phenoxy)ethyl)amino)pentyl)oxy)acetamido)-3,3-dimethylbutanoyl)-4-hydroxy-N—((S)-1-(4-(4-methylthiazol-5-yl)phenyl)ethyl)pyrrolidine-2-carboxamide]",cell proliferation inhibition,[1],does not exhibit the cell proliferation inhibition effects
same,suppression of pGR and GREB1 expression compared with fulvestrant,[2]; 10 nM and 100 nM,slightly more effective than fulvestrant
same,suppression of pGR and GREB1 expression compared with raloxifene,[2]; 10 nM and 100 nM,significantly more effective than raloxifene
same,suppression of expression of pGR and GREB1,[2]; qRT-PCR,strongly suppressed
same,hook effect,"ERα; T47D cells, 1 μM",demonstrates a hook effect
same,DC50,"ERα; T47D cells, 4 h",0.43 nM
same,Dmax,"ERα; T47D, read-out: maximum degradation",> 95%
same,IC50,"MCF-7 cells [3]; Homo sapiens, MCF7, 96 h, read-out: IC50, inhibition of cell proliferation",0.77 nM
same,maximum inhibition (Imax),"MCF-7 cells [3]; MCF-7 cells, WST-8, 4 days",57.5%
same,reduction of cell proliferation (crystal violet staining),MCF-7 cells [4],reduced cell proliferation more significantly than raloxifene or fulvestrant
